Test [1] has as its target T1, Excitatory amino acid transporter 3 (Homo sapiens, UniProt P43005).
T1 sequence (P43005 whole entry): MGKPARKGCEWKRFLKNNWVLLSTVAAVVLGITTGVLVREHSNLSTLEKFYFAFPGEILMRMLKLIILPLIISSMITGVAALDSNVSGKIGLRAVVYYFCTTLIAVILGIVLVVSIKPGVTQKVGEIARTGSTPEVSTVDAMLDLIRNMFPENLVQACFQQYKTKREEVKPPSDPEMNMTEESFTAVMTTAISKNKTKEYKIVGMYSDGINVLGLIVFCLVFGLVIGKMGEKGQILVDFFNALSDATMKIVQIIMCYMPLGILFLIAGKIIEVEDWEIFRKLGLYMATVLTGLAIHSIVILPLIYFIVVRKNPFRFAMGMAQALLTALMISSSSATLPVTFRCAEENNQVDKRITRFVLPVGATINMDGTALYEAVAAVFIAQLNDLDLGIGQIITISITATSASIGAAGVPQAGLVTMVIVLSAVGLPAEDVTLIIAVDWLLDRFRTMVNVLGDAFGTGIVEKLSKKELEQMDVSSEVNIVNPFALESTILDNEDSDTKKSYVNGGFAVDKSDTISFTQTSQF

Test [2] addresses Excitatory amino acid transporter 1 (Homo sapiens, UniProt P43003).

The IC50 is the concentration at which inhibition is half-maximal. The low end stands for inhibition by little substance, the high end for a need for much substance.

Excitatory amino acid transporter 1, sequence (P43003 whole entry): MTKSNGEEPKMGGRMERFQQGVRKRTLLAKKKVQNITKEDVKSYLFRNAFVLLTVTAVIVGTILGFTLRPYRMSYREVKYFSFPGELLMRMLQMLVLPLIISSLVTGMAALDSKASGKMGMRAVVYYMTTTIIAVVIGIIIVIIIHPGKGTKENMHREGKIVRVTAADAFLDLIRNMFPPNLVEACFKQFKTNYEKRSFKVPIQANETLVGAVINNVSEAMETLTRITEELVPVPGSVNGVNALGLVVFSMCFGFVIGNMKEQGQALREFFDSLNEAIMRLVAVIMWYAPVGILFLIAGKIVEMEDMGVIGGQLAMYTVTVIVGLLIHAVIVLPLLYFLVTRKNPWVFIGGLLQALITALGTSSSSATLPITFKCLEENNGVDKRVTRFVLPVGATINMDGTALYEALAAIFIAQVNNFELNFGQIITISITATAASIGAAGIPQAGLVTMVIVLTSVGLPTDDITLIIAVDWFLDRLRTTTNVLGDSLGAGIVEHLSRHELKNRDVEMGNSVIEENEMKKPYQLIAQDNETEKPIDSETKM

The compound `Cc1cc(C(=O)NC[C@H](N)C(=O)O)ccc1-c1ccc(Cl)cc1` [3-[3-Methyl-4-(4-chlorophenyl)benzoylamino]alanine] displayed an IC50 in test [1] of 1450 nM.

On to `N[C@@H](CC(=O)Nc1ccc2c(c1)Cc1cc(C(F)(F)F)ccc1-2)C(=O)O` [WAY-212922], for which the IC50 in test [2] came to 3430 nM; in test [1] it was 1840 nM.

Consider `Cc1ccccc1-c1ccc(NC(=O)C[C@H](N)C(=O)O)cc1` [WAY-213394], for which the IC50 was determined as 1970 nM in test [2] and 6560 nM in test [1].

Source of the values: BindingDB's records for doi:10.1124/mol.105.012005 (Wyeth Research, 2005).
